pEC50, pIC50: −log10 of the molar value. Read-outs that look alike come from different tables or passages of the source.
What was measured:
[1] = system: Huh-7 xenografts; assay: CIVO intratumoral microinjection, Huh-7 xenografts; type: in vivo; settings: Huh-7 liver cancer model
Description: FIG. 6 depicts the CIVO injection array.
CC3 is not elevated over background levels at any injection site.

[2] = system: MIA PaCa-2; assay: 72-hour CellTiter-Glo 2.0 growth inhibition screen (single agent, 9x9 combination dose matrix); type: cell-based;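 on Best CI Level: inhibition effect level at which the best CI was calculated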
[3] = system: NCI-H2030; assay: as above; type: cell-based; settings: for pEC50 / Emax: Homo sapiens; for pEC50: NCI-H2030, 72 h; for pEC50 / Emax / Response Area: NCl-H2030, Lung; for Emax: NCI-H2030;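 on Best CI Level: inhibition effect level at which the best CI was calculated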
[4] = system: NCI-H1373; assay: as above; type: cell-based; settings: for pEC50 / Emax: Homo sapiens; for pEC50: NCI-H1373, 72 h; for pEC50 / Emax / Response Area: NCl-H1373, Lung; for Emax: NCI-H1373;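 on Best CI Level: inhibition effect level at which the best CI was calculated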
[5] = system: Calu-1; assay: as above; type: cell-based; settings: for Response Area / pEC50 / Emax: Calu-1, Lung; for pEC50 / Emax: Homo sapiens; for pEC50: Calu-1, 72 h;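 on Best CI Level: inhibition effect level at which the best CI was calculated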
[6] = system: NCI-H1792; assay: as above; type: cell-based;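 on Best CI Level: inhibition effect level at which the best CI was calculated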
[7] = Homo sapiens, MIA PaCa-2, Pancreas, Additional Single Agent Responses (inhibition, % I), 72 h
[8] = MIA PaCa-2 (KRAS G12C), enhancer + MEI-522 (Voruciclib), 72 h;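 on Best CI Level: inhibition effect level at which the best CI was calculated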
[9] = enhancer combined with MEI-522 (Voruciclib), MIA PaCa-2 (Pancreas), 72 hours, inhibition data
[10] = Additional Single Agent Responses (inhibition, % I), 72 h
[11] = growth inhibition (GI) curve, single agent, 72 h
[12] = Additional Single Agent Responses, 72 h, read-out: Max Response (% I)
[13] = growth inhibition (GI), single agent, 72 h, read-out: Max Response (% GI)
[14] = NCl-H2030 (KRAS G12C), enhancer + MEI-522 (Voruciclib), 72 h
[15] = growth inhibition (GI), AUC, single agent, 72 h
[16] = enhancer combined with MEI-522 (Voruciclib), NCl-H2030 (Lung), 72 hours, inhibition data
[17] = NCl-H1373 (KRAS G12C), enhancer + MEI-522 (Voruciclib), 72 h
[18] = enhancer combined with MEI-522 (Voruciclib), NCl-H1373 (Lung), 72 hours, inhibition data
[19] = Calu-1 (KRAS G12C), enhancer + MEI-522 (Voruciclib), 72 h;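 on Best CI Level: inhibition effect level at which the best CI was calculated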
[20] = enhancer combined with MEI-522 (Voruciclib), Calu-1 (Lung), 72 hours, inhibition data
[21] = NCl-H1792 (KRAS G12C), enhancer + MEI-522 (Voruciclib), 72 h
[22] = enhancer combined with MEI-522 (Voruciclib), NCl-H1792 (Lung), 72 hours, inhibition data

SMILES: CN1CCN(c2ccc(OC(F)(F)F)c(Nc3ncc4c(n3)-c3c(c(C(N)=O)nn3CCO)CC4)c2)CC1 [Onvansertib]
- apoptotic cells (CC3) [1]: do not result in an increase in apoptotic cells

SMILES: C=CC(=O)N1CCN(c2nc(=O)n(-c3c(C)ccnc3C(C)C)c3nc(-c4c(O)cccc4F)c(F)cc23)[C@@H](C)C1 [AMG510]
- pEC50 [2, 7]: 8.24
- pIC50 [2, 7]: 7.83
- Emax ([2]; Homo sapiens, MIA PaCa-2, Pancreas, Additional Single Agent Responses, 72 h, read-out: Max Response (% I)): 63%
- GI50 ([2]; Homo sapiens, MIA PaCa-2, Pancreas, growth inhibition (GI) curve, single agent, 72 h): 9.2 nM
- Emax ([2]; Homo sapiens, MIA PaCa-2, Pancreas, growth inhibition (GI), single agent, 72 h, read-out: Max Response (% GI)): 77%
- Best CI [2, 8]: 0.65
- Bliss Volume [2, 8]: 3.75
- HSA volume [2, 8]: 5.03
- Loewe Volume [2, 8]: 4.68
- Synergy Score [2, 8]: 6.04
- Response Area ([2]; MIA PaCa-2, Pancreas, Additional Single Agent Responses (inhibition, % I), 72 h): 3.12
- Response Area ([2]; MIA PaCa-2, Pancreas, growth inhibition (GI), AUC, single agent, 72 h): 3.77
- Best CI [2, 9]: 0.60
- Best CI Level [2, 9]: 75
- Bliss Volume [2, 9]: 0.19
- HSA volume [2, 9]: 2.76
- Loewe Volume [2, 9]: 2.52
- Synergy Score [2, 9]: 2.16
- pEC50 [3, 10]: 8.37
- pEC50 [3, 11]: 8.36
- Emax [3, 12]: 38%
- Emax [3, 13]: 47%
- Best CI [3, 14]: 0.47
- Bliss Volume [3, 14]: 6.35
- HSA volume [3, 14]: 4.90
- Loewe Volume [3, 14]: 4.51
- Synergy Score [3, 14]: 5.13
- Response Area [3, 10]: 1.65
- Response Area [3, 15]: 2.05
- Best CI [3, 16]: 0.70
- Best CI Level [3, 16]: 50
- Bliss Volume [3, 16]: 1.77
- HSA volume [3, 16]: 3.51
- Loewe Volume [3, 16]: 3.26
- Synergy Score [3, 16]: 2.04
- pEC50 [4, 10]: 8.60
- pEC50 [4, 11]: 8.68
- Emax [4, 12]: 49%
- Emax [4, 13]: 65%
- Best CI [4, 17]: 0.28
- Bliss Volume [4, 17]: 2.91
- HSA volume [4, 17]: 1.67
- Loewe Volume [4, 17]: 2.62
- Synergy Score [4, 17]: 4.10
- Response Area [4, 10]: 2.05
- Response Area [4, 15]: 2.56
- Best CI [4, 18]: 0.93
- Best CI Level [4, 18]: 20
- Bliss Volume [4, 18]: −1.68
- HSA volume [4, 18]: 0.90
- Loewe Volume [4, 18]: 0.62
- Synergy Score [4, 18]: 1.25
- Best CI [5, 19]: 0.80
- Bliss Volume [5, 19]: 2.90
- HSA volume [5, 19]: 2.88
- Loewe Volume [5, 19]: 2.66
- Synergy Score [5, 19]: 4.52
- Response Area [5, 10]: 1.72
- Response Area [5, 15]: 2.29
- pEC50 [5, 10]: 8.55
- pEC50 [5, 11]: 8.54
- Emax [5, 12]: 37%
- Emax [5, 13]: 48%
- Best CI [5, 20]: 0.72
- Best CI Level [5, 20]: 55
- Bliss Volume [5, 20]: −0.15
- HSA volume [5, 20]: 1.55
- Loewe Volume [5, 20]: 1.28
- Synergy Score [5, 20]: 1.42
- pEC50 ([6]; Homo sapiens, NCI-H1792, NCl-H1792, Lung, Additional Single Agent Responses (inhibition, % I), 72 h): 8.38
- Emax ([6]; Homo sapiens, NCI-H1792, NCl-H1792, Lung, Additional Single Agent Responses, 72 h, read-out: Max Response (% I)): 29%
- Emax ([6]; Homo sapiens, NCI-H1792, NCl-H1792, Lung, growth inhibition (GI), single agent, 72 h, read-out: Max Response (% GI)): 37%
- Best CI [6, 21]: 0.36
- Bliss Volume [6, 21]: 5.76
- HSA volume [6, 21]: 3.59
- Loewe Volume [6, 21]: 4.64
- Synergy Score [6, 21]: 3.62
- Response Area ([6]; NCl-H1792, Lung, Additional Single Agent Responses (inhibition, % I), 72 h): 1.05
- Response Area ([6]; NCl-H1792, Lung, growth inhibition (GI), AUC, single agent, 72 h): 1.34
- Best CI [6, 22]: 0.46
- Bliss Volume [6, 22]: 2.25
- HSA volume [6, 22]: 2.86
- Loewe Volume [6, 22]: 3.31
- Synergy Score [6, 22]: 1.87
- Best CI Level ([6]; enhancer combined with MEI-522 (Voruciclib), NCl-H1792 (Lung), 72 hours, inhibition data, unit assumed): 35%
